# Measurements: patent publication US9572890B2, “Oral formulations of mitochondrially-targeted antioxidants and their preparation and use” (MITOTECH SA, priority 2011, dated 2017)
# Legend:
# LPS-induced septic shock = test: LPS/D-GalN-induced septic shock, survival; type: in vivo, BALB/c mice
# Experimental: Induction of the septic shock was performed as follows: 43 male BALB/c mice with free food and water access were divided onto 4 experimental groups. Group “K” got water without drugs. Groups “SkQ 50,” “SkQ 250,” and “SkQ 1250” were daily parenterally treated with pharmaceutical form of SkQ1 in water comprising 50 nmol/kg, 250 nmol/kg, and 1250 nmol/kg accordingly. After 3 weeks of SkQ1 treatment animals were intraperitonially injected with […] LPS and 700 mg/kg D-galactosamine (D-GalN) inducing septic shock leading to death of 50% of untreated control animals (LD50 dose). Death of animals were registered after 4 d of septic shock induction.
# [1] = test system: human endothelial cells EA.hy926; test: TNF-α induced death of endothelial cells (MTT test); type: cell-based; details: 2 nM pre-incubation 4 d; TNF-α 0.25 to 50 ng/ml for 2 d
# Experimental: Human endothelial cell line EA.hy926 (ATCC Collection; catalog number CRL-2922) was used as a model of vascular endothelium. This cell line is similar to primary HUVEC cell line (Edgell et al. (1983) PNAS, 80(12):3734-7; Edgell et al. (1990) In Vitro Cell Dev Biol., 26(12):1167-72) and widely used as a relevant model for inflammation studies (Riesbeck et al. (1998) Clin. Vaccine Immunol., 5:5675-682).
# Accordingly, human endothelial cells EA.hy926 were pre-incubated with 0.2 nM SkQR1 or 2 nM SkQ1 solution in Dulbecco's Modified Eagle's Medium (DMEM) supplemented with 10% of fetal serum (Example 1) for 4 d. After that the cells were incubated overnight with fresh DMEM medium with 0.2% of fetal serum. The cells were incubated 2 d with TNF-α (0.25 ng/ml to 50 ng/ml) and cell death was monitored using standard MTT test (Berridge et al. (1996) Biochemica, 4:14-9). The data from this assay is shown as means±S.E. at least for 3 separate experiments.
# [2] = test system: full-thickness dermal wounds of db/db mice; test: Wound healing in db/db diabetic mice; type: in vivo; details: SkQ1 in 20% glycerol, 250 nmol/kg per day, 10 to 12 weeks; 7 days after wounding
# Description: Wound healing was studied in two series using 6 months old C57BLKS-Leprdb/J mice (db/db) homozygous and heterozygous C57BLKS-Leprdb/J mice (db/+) mice. These mice are used as type II diabetes model with impaired wound healing (Michaels, et al. (2007) Wound Repair and Regeneration, 15:665-670).
# The mice were daily administered 250 nmol/kg body weight per day with the pharmaceutical form of SkQ1 in 20% glycerol as described in Example 8) during period of time from 10 weeks to 12 weeks. Control groups of db/db and db/+ mice were not treated with SkQ1. Full-thickness dermal wounds were made under anesthesia of ketamine (80 mg/kg). Animals were kept in plastic cages under standard temperature, light, and feeding regimes. 7 days after wounding, animals were sacrificed by decapitation. The wounds were excised, fixed in 10% formalin in standard PBS buffer, histologically processed, and embedded in paraffin. Histological sections of central part of the wounds were cut and stained with hematoxylin and eosin. The sections were immunohistochemically stained for markers of endothelial cells (CD31), macrophages (f4/80), and myofibroblasts (smooth muscle α-actin). ImageJ software (National Institutes of Health (NIH) http:/rsb.info.nih.gov/ij/) was used to calculate total amount of cells, number of neutrophils, macrophages and vessel density (vessel area/granulation tissue area*100) on the microphotographs of wound sections. For each animal 100 mm^2 of section area was analyzed. Wound epithelization rate was assessed in % as ratio of epithelized wound area to total wound area on tissue section*100. For statistical analysis nonparametric Mann-Whitney U-test was used. Data are shown as means±S.E.M.
# alloxan diabetes = test: Alloxan diabetes, blood glucose level (glucose oxidase method); type: in vivo, rats; details: 250 nM SkQ1 in drinking water (approx. 50 nmol/kg per day) 10 d before and 14 d after alloxan 100 mg/kg s.c.; 2 weeks after alloxan
# Experimental: Induction of the alloxan diabetes was performed as follows: Two groups of laboratory rats (20 animals in each group) with free food and water access fed a 250 nM solution of SkQ1 for 10 d. The daily rat consumption was 60 ml water solution (containing 15 nmoles SkQ1). The average weight of rats was 300 g. Thus, rats consumed approximately 50 nmol/kg body weight per day. […] After 10 d, rats were subcutaneously (in the area of the thigh) injected with alloxan dissolved in isotonic salt solution of 0.9% w/v of NaCl (100 mg/kg body weight; groups “Alloxan+SkQ1” and “Alloxan.” Control animals were injected with salt solution without alloxan (groups “Control+SkQ1” and “Control”). After injection, the rats continued to drink water containing SkQ1 (250 nM) during 14 d (group “Alloxan+SkQ1”) or were kept without SkQ1 (group “Alloxan”). Data on glucose blood level was measured by the glucose oxidase method ([…] et al. (1958) J. Lab. Clin. Med., 51:445-460) after 2 weeks of alloxan injection. All data are presented as the mean+/-SE.
# [3] = Stability in dark plastic or glass vials (light sensitivity); type: physicochemical
# Description: Accordingly, one of the ways to further improve or increase stability of SkQ liquid compositions during storage and transportation is to protect it from light.
# [4] = Stability of MTAs in liquid solvents (degradation rate); type: physicochemical
# Experimental: Liquid solvents were also tested for their ability to stabilize representative MTAs SkQ1 and SkQR1. The solvents tested were water solutions of glycerol (10% to 100%), 50% lactulose, and 1,2-propylene glycol (10% to 100%, at 60° C.). Some representative results are shown below (Table 1).
smiles,measurement,setting,value
CC1=C(C)C(=O)C(CCCCCCCCCC[P+](c2ccccc2)(c2ccccc2)c2ccccc2)=CC1=O [SkQ1],survival of mice following LPS/D-GalN treatment,"LPS-induced septic shock; SkQ1 in water 50, 250, 1250 nmol/kg daily parenterally for 3 weeks, death registered after 4 d",significantly improved
same,"survival, significance of the effect","LPS-induced septic shock; dose of 50 nmol/kg, p=0.03",statistically significant effect
same,cell death compared to control without MTA,[1],greatly reduced
same,neutrophil infiltration of wounds,[2],decreasing
same,rate of epithelization of wounds,[2],increasing
same,vascularization of wounds (vessel density),[2],increasing
same,"blood glucose, lower compared to animals without SkQ1 treatment",alloxan diabetes,about 2 fold
same,stability,[3],significantly increased
same,"Degradation rate, percent per day","[4]; 400 mkM in 10% 1,2-propylene glycol, at 60° C.",0.47 percent per day
same,"Degradation rate, percent per day",[4]; 400 mkM in 10% Glycerol,0.61 percent per day
same,"Degradation rate, percent per day",[4]; 400 mkM in 20% Glycerol,0.51 percent per day
same,"Degradation rate, percent per day",[4]; 400 mkM in 30% Glycerol,0.53 percent per day
same,"Degradation rate, percent per day",[4]; 400 mkM in 40% Glycerol,0.91 percent per day
same,"Degradation rate, percent per day","[4]; 400 mkM in 50% 1,2-propylene glycol, at 60° C.",0.06 percent per day
same,"Degradation rate, percent per day",[4]; 400 mkM in 50% Glycerol,1.54 percent per day
same,"Degradation rate, percent per day",[4]; 400 mkM in 50% lactulose,9.01 percent per day
same,"Degradation rate, percent per day",[4]; 400 mkM in 60% Glycerol,1.92 percent per day
same,"Degradation rate, percent per day",[4]; 400 mkM in 70% Glycerol,2.4 percent per day
same,"Degradation rate, percent per day",[4]; 400 mkM in 80% Glycerol,3.2 percent per day
same,"Degradation rate, percent per day",[4]; 400 mkM in 90% Glycerol,4.18 percent per day
same,"Degradation rate, percent per day","[4]; 400 mkM in 100% 1,2-propylene glycol, at 60° C.",0.18 percent per day
